For one test, the system named is AsPC 1. The test is described as follows: Anti-neoplasmic activity against xenograft in hairless mice. The test is classed as in vivo. A digest of the protocol:
(§1)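 TGI calculated as 100−(ΔVT/ΔVC×100), using mean volume change from therapy start in treated versus control mice. Xenografts: s.c. 5×10^6 cells, female Crl:Nu-Foxn1nu mice aged 5 weeks. Compounds dosed i.v. twice weekly for 4 weeks at three doses; tumours measured twice weekly.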

In the next test the test system is MDA MB 231. Described as above. As to conditions: series 19, i.v. The test is classed as in vivo. A digest of the protocol:
as §1

Another test relates to UM UC 3. The test is described as above. The test is classed as in vivo. Particulars: series 11, i.v., day 23. A digest of the protocol: as §1
The next test has as its system PANC 1. The test is described as above. The test is classed as in vivo. The method in brief: (§2)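 Human tumour cells (5×10^6 per mouse) implanted subcutaneously in 5-week female nude mice; randomised at ~100–200 mm^3 tumour volume. Dosing i.v. or i.p., twice weekly (thrice for fast growers) over 4 weeks, three dose levels. Growth inhibition computed from volume change versus controls.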

The test system of another test is HCT 116. Described as above. The test is classed as in vivo. Particulars: series 7, i.v., single 4 mg/kg, total 24 mg/kg, day 15. A digest of the protocol: as §1
The next test deals with BXPC 3. Described as above. It counts as in vivo. A digest of the protocol: as §1
Another test concerns DU 145. Described as above. The test is classed as in vivo. The method in brief: (§3)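 Female 5-week Crl:Nu-Foxn1nu hairless mice received 5×10^6 tumour cells s.c.; therapy began at ~100 or 200 mm^3. Bis-acridines were given i.v. (some series i.p.) twice weekly for 4 weeks, at three doses. TGI [%]=100−(ΔVT/ΔVC×100) from caliper-derived tumour volumes.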
For another test, the system named is PC 3. The test is described as above. The test is classed as in vivo. As to conditions: series 12, i.p., single 1 mg/kg, total 8 mg/kg, day 39. The method in brief: as §3
The subject of a further test is Mia Pa Ca 2. Described as above. The test is classed as in vivo. The method in brief: as §1
The next test concerns H 460. Described as above. The test is classed as in vivo. The method in brief: as §2
The next test has as its system MiaPaCa-2. The test is described as follows: Cytotoxic activity in vitro, SRB. It counts as cell-based, human. A digest of the protocol:
(§4)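 Human tumour cells are exposed to the bis-acridines, and growth is then quantified by sulforhodamine B staining as recommended by the NCI. The EC50 values derive from comparison with control cells and mark half-maximal inhibition of proliferation.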

The next test has as its system MDA-MB-231. The test is described as follows: Cytotoxic activity in vitro, SRB. The test is classed as cell-based, human. The method in brief:
as §4

The subject of the next test is HT-29. The test is described as follows: Cytotoxic activity in vitro, SRB. It counts as cell-based, human. A digest of the protocol: as §4
In another test the test system is Capan-2. The test is described as follows: Cytotoxic activity in vitro, SRB. The test is classed as cell-based, human. A digest of the protocol:
as §4

A further test deals with AsPC-1. The test is described as follows: Cytotoxic activity in vitro, SRB. It counts as cell-based, human. A digest of the protocol:
as §4

The test system of a further test is DU-145. The test is described as follows: Cytotoxic activity in vitro, SRB. The test is classed as cell-based, human. The method in brief: as §4
For another test, the system named is PANC-1. The test is described as follows: Cytotoxic activity in vitro, SRB. It counts as cell-based, human. A digest of the protocol: as §4
A further test deals with MCF-7. The test is described as follows: Cytotoxic activity in vitro, SRB. The test is classed as cell-based, human. A digest of the protocol:
as §4

The test system of another test is UM-UC-3. The test is described as follows: Cytotoxic activity in vitro, SRB. The test is classed as cell-based, human. The method in brief:
as §4

For the next test, the system named is PC-3. The test is described as follows: Cytotoxic activity in vitro, SRB. The test is classed as cell-based, human. A digest of the protocol:
as §4

The next test deals with H-460. The test is described as follows: Cytotoxic activity in vitro, SRB. The test is classed as cell-based, human. A digest of the protocol: as §4
In another test the test system is HCT-116. The test is described as follows: Cytotoxic activity in vitro, SRB. It counts as cell-based, human. A digest of the protocol:
as §4

The test system of a further test is BxPC-3. The test is described as follows: Cytotoxic activity in vitro, SRB. It counts as cell-based, human. The method in brief: as §4
The next test deals with H T29. The test is described as follows: Anti-neoplasmic activity against xenograft in hairless mice. It counts as in vivo. As to conditions: series 3, i.v., total 24 mg/kg, day 20. The method in brief: as §1

“And” between values parts separate entries of the source, which are not always exact repeats. Equal values may be shown once.

The record followed here is patent US10202349B2, “Asymmetric bis-acridines with antitumour activity and their uses” (POLITECHNIKA GDAŃSKA, priority 2015, dated 2019).

Consider `CN(CCCNc1c2ccccc2nc2cccc([N+](=O)[O-])c12)CCCNc1ccc2ncn3c4ccccc4c(=O)c1c23` [C-2028, 9-{N-[(imidazo[4,5,1-de]-acridin-6-on-5-yl)aminopropyl]-N-methylaminopropylamino}-1′-nitroacridine], for which the TGI (usually the reduction of tumour growth relative to the control group) in the test with AsPC 1 (ASP-1, threshold activity) was less than 50%; in the test with PANC 1 (PANC-1 cancer, three consecutive experimental runs) it was 71% and 90% and 82%; in the test on BXPC 3 (BXPC-3, significant activity), 64%; with Mia Pa Ca 2 (MiaPa Ca2, threshold activity), less than 50%. Also, the “TGI [%] [100 − (ΔVT/ΔVC × 100]” value in the test on AsPC 1 (series 23, i.v., single 6 mg/kg, total 48 mg/kg, day 46) was found to be 35%; with MDA MB 231 (single 2 mg/kg, total 16 mg/kg, day 25) it was 44%; in the test on UM UC 3 (single 6 mg/kg, total 42 mg/kg) it was 54%; in the test on PANC 1 (series 10, i.v., single 1 mg/kg, total 10 mg/kg, day 31), 71%; in the test on PANC 1 (series 14, i.v., single 4 mg/kg, total 36 mg/kg, day 45) it was 90%; in the test with PANC 1 (series 29, i.v., single 4 mg/kg, total 20 mg/kg, day 36), 59%. In addition, the “TGI [%] [100 − (ΔVT/ΔVC × 100]” value with PANC 1 (series 32, i.v, single 2 mg/kg, total 16 mg/kg, day 40) worked out at 82%; in the test with HCT 116 it was 34%; in the test on BXPC 3 (series 21, i.v., single 6 mg/kg, total 30 mg/kg, day 37) it was 64%; with BXPC 3 (series 33, i.v., single 4 mg/kg, total 32 mg/kg, day 36), 43%; with DU 145 (series 13, i.v., single 4 mg/kg, total 32 mg/kg, day 40) it was 46%; in the test with PC 3, 30%. Also, the “TGI [%] [100 − (ΔVT/ΔVC × 100]” value is 52% with Mia Pa Ca 2 (series 12, i.v., single 6 mg/kg, total 42 mg/kg, day 36); 68* % in the test on Mia Pa Ca 2 (series 28, i.v., single 2 mg/kg, total 8 mg/kg, day 11, *at least half of animals did not survive); 31% in the test with H 460 (series 16, i.v., single 1 mg/kg, total 5 mg/kg, day 28). The half-maximal effective concentration (EC50) (usually the midpoint of the concentration-response curve) in the test on MiaPaCa-2 came to 79 nM; in the test with MDA-MB-231, 17 nM; with HT-29, 37 nM; with Capan-2, 11 nM; with AsPC-1 it was 61 nM; in the test on DU-145 it was 23 nM. Besides, the 50% effective concentration (EC50) in the test with PANC-1 stood at 24 nM; in the test with MCF-7 it was 53 nM; in the test with UM-UC-3, 10 nM; in the test with PC-3, 28 nM; in the test with H-460 it was 15 nM; in the test with HCT-116, 17 nM. In the test on BxPC-3, this compound yielded a 50% effective concentration (EC50) of 74 nM.

`Cc1ccc(NCCCN2CCN(CCCNc3c4ccccc4nc4cccc([N+](=O)[O-])c34)CC2)c2c(=O)c3ccccc3[nH]c12` [C-1973, 1-[3-(4-methyl-9(10H)-acridono-1-yl)aminopropyl]-4-3′-[(1′-nitroacridin-1-yl)-aminopropyl]piperazine]: the “TGI [%] [100 − (ΔVT/ΔVC × 100]” value with MDA MB 231 (single 1 mg/kg, total 8 mg/kg, day 50) is reported as 30%; in the test on UM UC 3 (single 2 mg/kg, total 14 mg/kg), 46%; in the test on PANC 1 (series 31, i.v., single 2 mg/kg, total 16 mg/kg, day 37) it was 75%; in the test with DU 145 (series 13, i.v., single 4 mg/kg, total 32 mg/kg, day 63), 90%; in the test with DU 145 (series 18, i.v., single 1 mg/kg, total 8 mg/kg, day 33), 51%; in the test on H 460 (series 16, i.v., single 2 mg/kg, total 10 mg/kg, day 21), 42%. In addition, the half-maximal effective concentration (EC50) with MiaPaCa-2 was 16 nM; with MDA-MB-231, 28 nM; in the test on HT-29, 23 nM; in the test on AsPC-1, 79 nM; in the test with DU-145, 20 nM; with PANC-1 it was 27 nM. In addition, the EC50 with MCF-7 was 113 nM; with UM-UC-3, 9.5 nM; in the test with PC-3, 48 nM; with H-460, 5 nM; in the test with HCT-116 it was 19 nM; in the test on BxPC-3 it was 59 nM.

Consider `O=c1c2cc(O)ccc2[nH]c2c([N+](=O)[O-])ccc(NCCCN3CCN(CCCNc4c5ccccc5nc5cccc([N+](=O)[O-])c45)CC3)c12` [C-1941], for which the “TGI [%] [100 − (ΔVT/ΔVC × 100]” value in the test on H T29 (single 3 mg/kg) is given as 26%; with H T29 (single 4 mg/kg) it was 35%; in the test on DU 145 (series 2, i.p., single 4 mg/kg, total 24 mg/kg, day 35) it was 52%; in the test on Mia Pa Ca 2 (series 12, i.p., single 4 mg/kg, total 32 mg/kg, day 26), 30%; with H 460 (series 4, i.v., single 15 mg/kg, total 30 mg/kg, day 14), 24%. Moreover, the concentration giving a half-maximal response (EC50) was determined as 12 nM with MiaPaCa-2; 12 nM in the test on MDA-MB-231; 38 nM in the test on HT-29; 210 nM in the test with AsPC-1; 20 nM with DU-145; 43 nM with PANC-1. Further, the concentration for a half-maximal effect (EC50) was 61 nM in the test with MCF-7; 33 nM in the test with UM-UC-3; 31 nM in the test on PC-3; 20 nM with H-460; 11 nM in the test on HCT-116.
